Experimental data taken from PubChem BioAssay (NCI).
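Each compound was tested at five concentrations against cells in 96-well plates for 48 hours. At the GI50, growth is halved. TGI marks complete inhibition of growth.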

Experiments:
Test in all cases: NCI tumour cell line growth inhibition, 48 h
786-0 renal = test system: 786-0 renal
A498 renal = test system: A498 renal
A549 NSCLC = test system: A549 NSCLC
ACHN renal = test system: ACHN renal
BT-549 breast = test system: BT-549 breast
CAKI-1 renal = test system: CAKI-1 renal
CCRF-CEM leukemia = test system: CCRF-CEM leukemia
COLO 205 colon = test system: COLO 205 colon
DU-145 prostate = test system: DU-145 prostate
EKVX NSCLC = test system: EKVX NSCLC
HCT-116 colon = test system: HCT-116 colon
HCT-15 colon = test system: HCT-15 colon
HOP-62 NSCLC = test system: HOP-62 NSCLC
HOP-92 NSCLC = test system: HOP-92 NSCLC
HS 578T breast = test system: HS 578T breast
HT29 colon = test system: HT29 colon
IGROV1 ovarian = test system: IGROV1 ovarian
K-562 leukemia = test system: K-562 leukemia
KM12 colon = test system: KM12 colon
LOX IMVI melanoma = test system: LOX IMVI melanoma
M14 melanoma = test system: M14 melanoma
MALME-3M melanoma = test system: MALME-3M melanoma
MCF7 breast = test system: MCF7 breast
MDA-MB-231 breast = test system: MDA-MB-231 breast
MDA-MB-435 = test system: MDA-MB-435
MOLT-4 leukemia = test system: MOLT-4 leukemia
NCI-H226 lung = test system: NCI-H226 lung
NCI-H23 lung = test system: NCI-H23 lung
NCI-H460 lung = test system: NCI-H460 lung
NCI-H522 lung = test system: NCI-H522 lung
NCI/ADR-RES ovarian = test system: NCI/ADR-RES ovarian
OVCAR-3 ovarian = test system: OVCAR-3 ovarian
OVCAR-4 ovarian = test system: OVCAR-4 ovarian
OVCAR-8 ovarian = test system: OVCAR-8 ovarian
PC-3 prostate = test system: PC-3 prostate
RPMI-8226 leukemia = test system: RPMI-8226 leukemia
RXF 393 renal = test system: RXF 393 renal
SF-268 CNS = test system: SF-268 CNS
SF-295 CNS = test system: SF-295 CNS
SF-539 CNS = test system: SF-539 CNS
SK-MEL-2 melanoma = test system: SK-MEL-2 melanoma
SK-MEL-28 melanoma = test system: SK-MEL-28 melanoma
SK-MEL-5 melanoma = test system: SK-MEL-5 melanoma
SK-OV-3 ovarian = test system: SK-OV-3 ovarian
SN12C renal = test system: SN12C renal
SNB-19 CNS = test system: SNB-19 CNS
SNB-75 CNS = test system: SNB-75 CNS
SW-620 colon = test system: SW-620 colon
T-47D breast = test system: T-47D breast
TK-10 renal = test system: TK-10 renal
U251 CNS = test system: U251 CNS
UACC-257 melanoma = test system: UACC-257 melanoma
UACC-62 melanoma = test system: UACC-62 melanoma
UO-31 renal = test system: UO-31 renal
HL-60(TB) leukemia = test system: HL-60(TB) leukemia
OVCAR-5 ovarian = test system: OVCAR-5 ovarian

CSC(=S)NN=C1CCCCC1 was tested, and the TGI (786-0 renal) was over 100 µM, the TGI (A498 renal) was over 100 µM and the TGI (A549 NSCLC) was over 100 µM. The TGI (ACHN renal) was 56 µM, the TGI (BT-549 breast) was over 100 µM and the TGI (CAKI-1 renal) was 65.2 µM. It also gave a TGI (CCRF-CEM leukemia) of 87.8 µM, a TGI (COLO 205 colon) of over 100 µM and a TGI (DU-145 prostate) of over 100 µM. For the same molecule, the TGI (EKVX NSCLC) was over 100 µM, the TGI (HCT-116 colon) was over 100 µM and the TGI (HCT-15 colon) was over 100 µM. It also gave a TGI (HOP-62 NSCLC) of over 100 µM, a TGI (HOP-92 NSCLC) of over 100 µM and a TGI (HS 578T breast) of over 100 µM. For the same molecule, the TGI (HT29 colon) was over 100 µM, the TGI (IGROV1 ovarian) was 43.3 µM and the TGI (K-562 leukemia) was 83.2 µM. The TGI (KM12 colon) was over 100 µM, the TGI (LOX IMVI melanoma) was 53.1 µM and the TGI (M14 melanoma) was 38.7 µM. It also gave a TGI (MALME-3M melanoma) of 44.8 µM, a TGI (MCF7 breast) of over 100 µM and a TGI (MDA-MB-231 breast) of over 100 µM. For the same molecule, the TGI (MDA-MB-435) was over 100 µM, the TGI (MOLT-4 leukemia) was 40.8 µM and the TGI (NCI-H226 lung) was 42.4 µM. For the same molecule, the TGI (NCI-H23 lung) was over 100 µM, the TGI (NCI-H460 lung) was over 100 µM and the TGI (NCI-H522 lung) was 88.7 µM. It also gave a TGI (NCI/ADR-RES ovarian) of 60.6 µM, a TGI (OVCAR-3 ovarian) of over 100 µM and a TGI (OVCAR-4 ovarian) of over 100 µM. It also gave a TGI (OVCAR-8 ovarian) of over 100 µM, a TGI (PC-3 prostate) of over 100 µM and a TGI (RPMI-8226 leukemia) of 0.647 µM. It also gave a TGI (RXF 393 renal) of over 100 µM, a TGI (SF-268 CNS) of over 100 µM and a TGI (SF-295 CNS) of over 100 µM. For the same molecule, the TGI (SF-539 CNS) was 67.7 µM, the TGI (SK-MEL-2 melanoma) was over 100 µM and the TGI (SK-MEL-28 melanoma) was over 100 µM. The TGI (SK-MEL-5 melanoma) was 37.7 µM, the TGI (SK-OV-3 ovarian) was over 100 µM and the TGI (SN12C renal) was 84.9 µM. It also gave a TGI (SNB-19 CNS) of over 100 µM, a TGI (SNB-75 CNS) of over 100 µM and a TGI (SW-620 colon) of over 100 µM. For the same molecule, the TGI (T-47D breast) was over 100 µM, the TGI (TK-10 renal) was 89.7 µM and the TGI (U251 CNS) was over 100 µM. For the same molecule, the TGI (UACC-257 melanoma) was over 100 µM, the TGI (UACC-62 melanoma) was 38 µM and the TGI (UO-31 renal) was over 100 µM.
For COc1ccc(OC)c(-c2nc3sccn3c2/C=C2/C(=O)Nc3ccccc32)c1, the GI50 (786-0 renal) was 0.273 µM, the TGI (786-0 renal) was 18.6 µM and the GI50 (A549 NSCLC) was 0.849 µM. For the same molecule, the TGI (A549 NSCLC) was over 60.2 µM, the GI50 (ACHN renal) was 0.61 µM and the TGI (ACHN renal) was 15.9 µM. For the same molecule, the GI50 (BT-549 breast) was 0.335 µM, the TGI (BT-549 breast) was 3.13 µM and the GI50 (CAKI-1 renal) was 0.506 µM. The TGI (CAKI-1 renal) was 8.68 µM, the GI50 (CCRF-CEM leukemia) was 0.273 µM and the TGI (CCRF-CEM leukemia) was 5.37 µM. It also gave a GI50 (COLO 205 colon) of 0.595 µM, a GI50 (DU-145 prostate) of 2.1 µM and a TGI (DU-145 prostate) of 26.5 µM. It also gave a GI50 (EKVX NSCLC) of 2.51 µM, a TGI (EKVX NSCLC) of 27.7 µM and a GI50 (HCT-116 colon) of 0.142 µM. The TGI (HCT-116 colon) was 1.52 µM, the GI50 (HCT-15 colon) was 0.434 µM and the TGI (HCT-15 colon) was 14.8 µM. For the same molecule, the GI50 (HL-60(TB) leukemia) was 0.0524 µM, the TGI (HL-60(TB) leukemia) was 26.5 µM and the GI50 (HOP-62 NSCLC) was 0.123 µM. For the same molecule, the TGI (HOP-62 NSCLC) was 4.41 µM, the GI50 (HOP-92 NSCLC) was 0.822 µM and the TGI (HOP-92 NSCLC) was 19.1 µM. It also gave a GI50 (HS 578T breast) of 0.415 µM, a TGI (HS 578T breast) of 2.3 µM and a GI50 (HT29 colon) of 0.355 µM. It also gave a GI50 (IGROV1 ovarian) of 2.1 µM, a TGI (IGROV1 ovarian) of over 86.1 µM and a GI50 (K-562 leukemia) of 0.49 µM. It also gave a TGI (K-562 leukemia) of over 100 µM, a GI50 (KM12 colon) of 0.119 µM and a TGI (KM12 colon) of 2.06 µM. The GI50 (LOX IMVI melanoma) was 2.82 µM, the TGI (LOX IMVI melanoma) was 35.1 µM and the GI50 (M14 melanoma) was 0.323 µM. The TGI (M14 melanoma) was 1.41 µM, the GI50 (MALME-3M melanoma) was 0.979 µM and the TGI (MALME-3M melanoma) was 21.2 µM. The GI50 (MCF7 breast) was 0.476 µM, the TGI (MCF7 breast) was over 35.7 µM and the GI50 (MDA-MB-231 breast) was 2.11 µM. It also gave a TGI (MDA-MB-231 breast) of 25.3 µM, a GI50 (MDA-MB-435) of 0.111 µM and a TGI (MDA-MB-435) of 0.293 µM. It also gave a GI50 (MOLT-4 leukemia) of 0.0472 µM, a TGI (MOLT-4 leukemia) of 18.4 µM and a GI50 (NCI-H226 lung) of 1.4 µM. For the same molecule, the TGI (NCI-H226 lung) was 4.89 µM, the GI50 (NCI-H23 lung) was 0.255 µM and the TGI (NCI-H23 lung) was 1.69 µM. The GI50 (NCI-H460 lung) was 0.511 µM, the TGI (NCI-H460 lung) was over 37.6 µM and the GI50 (NCI-H522 lung) was 0.294 µM. It also gave a TGI (NCI-H522 lung) of 17.3 µM, a GI50 (NCI/ADR-RES ovarian) of 1.42 µM and a TGI (NCI/ADR-RES ovarian) of 7.76 µM. The GI50 (OVCAR-3 ovarian) was 0.235 µM, the TGI (OVCAR-3 ovarian) was 0.586 µM and the GI50 (OVCAR-4 ovarian) was 3.01 µM. It also gave a TGI (OVCAR-4 ovarian) of over 38.7 µM, a GI50 (OVCAR-5 ovarian) of 0.437 µM and a TGI (OVCAR-5 ovarian) of 12.8 µM. It also gave a GI50 (OVCAR-8 ovarian) of 0.945 µM, a TGI (OVCAR-8 ovarian) of over 46.5 µM and a GI50 (PC-3 prostate) of 0.359 µM. The TGI (PC-3 prostate) was 14.2 µM, the GI50 (RPMI-8226 leukemia) was 0.241 µM and the TGI (RPMI-8226 leukemia) was 0.856 µM. The GI50 (RXF 393 renal) was 0.553 µM, the TGI (RXF 393 renal) was 17.9 µM and the GI50 (SF-268 CNS) was 1.33 µM. It also gave a TGI (SF-268 CNS) of 24.2 µM, a GI50 (SF-295 CNS) of 0.248 µM and a TGI (SF-295 CNS) of 0.635 µM. It also gave a GI50 (SK-MEL-2 melanoma) of 0.713 µM, a TGI (SK-MEL-2 melanoma) of 29.4 µM and a GI50 (SK-MEL-28 melanoma) of 1.96 µM. For the same molecule, the TGI (SK-MEL-28 melanoma) was 25.2 µM, the TGI (SK-MEL-5 melanoma) was 0.997 µM and the GI50 (SK-OV-3 ovarian) was 0.584 µM. It also gave a TGI (SK-OV-3 ovarian) of 6.36 µM, a GI50 (SN12C renal) of 4.65 µM and a TGI (SN12C renal) of 33.8 µM. It also gave a GI50 (SNB-19 CNS) of 1.72 µM, a TGI (SNB-19 CNS) of over 22.7 µM and a GI50 (SNB-75 CNS) of 2.95 µM. For the same molecule, the TGI (SNB-75 CNS) was over 100 µM, the GI50 (SW-620 colon) was 0.506 µM and the TGI (SW-620 colon) was 21.4 µM. For the same molecule, the GI50 (T-47D breast) was 7.82 µM, the TGI (T-47D breast) was over 49.4 µM and the GI50 (TK-10 renal) was 1.29 µM. It also gave a TGI (TK-10 renal) of 20.2 µM, a GI50 (U251 CNS) of 1.06 µM and a TGI (U251 CNS) of 15 µM. For the same molecule, the GI50 (UACC-257 melanoma) was 11.6 µM, the TGI (UACC-257 melanoma) was 34.7 µM and the GI50 (UACC-62 melanoma) was 0.293 µM. For the same molecule, the TGI (UACC-62 melanoma) was 12.8 µM, the GI50 (UO-31 renal) was 1.1 µM and the TGI (UO-31 renal) was over 41 µM.
